Measured values reported in patent publication US20030124132A1 (University of Texas, published 2003).

Columns and labels:
F9 sarcoma tumors = assay: Tumor tissue necrosis in F9 sarcoma mouse model; format: in vivo, balb/c nude mice; details: endotoxin-free tTF 4 μg; diluent 40-50% spontaneous necrosis
Protocol: 1×10^7 F9 sarcoma cells were injected subcutaneously into the right flank of balb/c nude mice. Subcutanous tumors were measured with a caliper in three perpendicular directions a, b, and c, and volumes calculated according to the formula V=π/6×a'b×c. Treatment was initiated when subcutaneous tumors reached a size of 150 to 300 μl.
Reagents were administered into the lateral tail vein.
Mice were closely observed after treatment for clinical signs of toxicity and clinical status was documented at defined time points. Three days after treatment, mice were sacrificed and tumors were harvested. Paraffin embedded tissues were stained with hematoxilin and eosin (H&E). Tissue sections were analyzed on a light microscope by two independent investigators and histological findings were documented. Tumor sections with necrotic areas were scanned with a GS-700 imaging densitometer (Biorad, Hercules, Calif.) and areas of necrosis were calculated as % of total section area.

[1] = tested on: A20 lymphoma cells (I-A^d positive), mouse or human plasma; assay: In vitro coagulation assay on A20 cells with capture bispecific antibody B21-2/10H10; format: cell-based; details: for coagulation time: cells alone 190 seconds
L540 tumor blood vessels = assay: Thrombosis of L540 tumor vessels by anti-VCAM-1·tTF coaguligand; format: in vivo, mice; details: equivalent quantities
Excerpt: Before coaguligand injection, tumors were viable, having a uniform morphology lacking regions of necrosis. […] Within four hours of coaguligand injection, 40-70% of blood vessels were thrombosed. despite the initial staining of only 20-30% of tumor blood vessels. The thrombosed vessels contained occlusive platelet aggregates, packed erythrocytes and fibrin. In several regions, the blood vessels had ruptured, spilling erythrocytes into the tumor interstitium.

TNFα = TNFα serum levels in treated animals (Quantikine-M kit); format: in vivo, mice; details: tTF containing no endotoxin (n=6); any of the time points
Protocol: (§1) Mice were closely observed after treatment for clinical signs of toxicity and clinical status was documented at defined time points (5 minutes, 10 minutes, 15 minutes, 30 minutes. 1 hour, 2 hours, 24 hours, 48 hours, 72 hours). Blood samples were taken from the tail vein at 1 hour, 2 hours and 24 hours to measure TNFα blood levels. Three days after treatment, the mice were anesthetized, blood samples were taken from the vena cava for coagulation tests, and an autopsy was performed to document any changes in gross pathology. Tumors, lymph node metastases and the major normal organs (heart, lung, brain, liver, kidney, colon, spleen, pancreas) were harvested and prepared for histological analysis.
TNFα levels in serum were deter-mined using the Quantikine-M kit (R&D Systems, Minneapolis, Minn.) according to the manufacturer's instructions.

immobilized tTF = biological target: T1, immobilized tTF (Homo sapiens, UniProt P13726); assay: Real time binding of tTF to immobilized tTF (surface plasmon resonance); details: tTF alone or preincubated with endotoxin or factor VIIa
T1 construct: Recombinant soluble Tissue Factor protein (amino acids 1-219) was extracted from the periplasmic space of transformed E. coli; made in house; host or cells: E. coli (periplasmic secretion, vector pswc7)

C1300 Muγ tumors = assay: Anti-tumor effects of tTF and immunoglobulin-tTF in C1300 Muγ tumors; format: in vivo, nu/nu mice; details: tTF alone or mixed with control bispecific antibodies
Protocol: The tumor test systems were: i) L540 human Hodgkin's disease tumors growing in SCID mice; ii) C1300 Muγ (interferon-secreting) neuroblastoma growing in nu/nu mice; iii) H460 human non-small cell lung carcinoma growing in nu/nu mice. To establish solid tumors, 1.5×10^7 tumor cells were injected subcutaneously into the right anterior flank of SCID or BALB/c nu/nu mice (Charles River Labs., Wilmingham, Mass.). When the tumors had grown to various diameters, mice were assigned to different experimental groups, each containing 4 to 9 mice.
Other mice received equivalent quantities of bispecific antibody alone. The injections were performed over ˜45 seconds into one of the tail veins, followed by 200 μl of saline. The infusions were repeated six days later. Perpendicular tumor diameters were measured at regular intervals and tumor volumes were calculated.
Mice bearing small (300 mm^3) C1300 Muγ tumors were injected intravenously with 16-20 μg tTF219. The treatment was repeated one week later. […] One week after the second treatment with tTF219, tumors were 60% of the size of tumors in mice receiving diluent alone. The greater effectiveness of the second injection probably derives from the greater thrombotic action of tTF219 on vessels in large tumors, observed above.
Mice bearing small (300 mm^3) subcutaneous C1300 Muγtumors were treated with tTF219 or with a complex of tTF219 and a bispecific antibody, OX7 Fab′/10H10 Fab′, not directed to a component of the tumor environment. The treatment was repeated 6 days later.

[2] = tested on: L540rec human Hodgkin's lymphoma tumors; assay: Tumor tissue necrosis in L540 Hodgkin's lymphoma-bearing mice after tTF and/or endotoxin; format: in vivo, SCID mice
Protocol: For in vivo studies, a metastasizing mouse model for human Hodgkin's lymphoma was used. 1×10^7 L540rec cells were injected subcutaneously into the right flank of SCID mice resulting in a subcutaneous tumor with lymph node metastases in the regional lymph node stations. Subcutanous tumors were measured with a caliper in three perpendicular directions a. b, and c, and volumes calculated according to the formula V=π/6×a×b×c.
(§2) Treatment was initiated when subcutaneous tumors reached a size of 150 to 300 μl. Reagents were administered into the lateral tail vein.
as §1
(§3) Tissue samples harvested at the time of autopsy were fixed in 3% NBF (normal buffered formalin) and embedded in paraffin wax. Tissue blocs were cut, dewaxed and stained with hematoxilin and eosin (H&E). Tissue sections were analyzed on a light microscope by two independent investigators and histological findings were documented. Tumor sections with necrotic areas were scanned with a GS-700 imaging densitometer (Biorad, Hercules, Calif.) and areas of necrosis were calculated as % of total section area. Statistical Analysis was performed using SPSS software (SPSS Science Software, Erkrath, Germany) applying the Mann-Whitney-U-test for ungrouped data.

[3] = tested on: thrombin-antithrombin-complexes (TAT); assay: Plasma thrombin-antithrombin-complexes (Enzygnost TAT micro-assay) three days after treatment; format: in vivo; details: tTF alone; tumor bearing mice, three days after i.v. treatment
Protocol: as §1
At the time of autopsy, citrated blood was sampled from the vena cava and thrombocyte-free plasma was prepared by centrifugation. […] Thrombin-Antithrombin-complexes were detected with the Enzygnost® TAT micro-assay (Dade-Behring, Marburg, Germany) according to the manufacturer's instructions. ATIII levels were determined using the Coamatic® antithrombin-assay (Haemocbrom, Essen, Germany) following the manufacturer's instructions. Changes in the blood levels of thrombin and plasmin were detected by mixing citrated plasma with the respective chromogenic substrates S2238 and S2403 (Haemochrom, Essen, Germany) and measuring the increase of the absorption at 405 nm by an ELISA reader.

[4] = Clinical signs of toxicity and histology of normal organs in treated tumor-bearing mice; format: in vivo, SCID mice; details: for Symptoms (clinical signs of toxicity): endotoxin-free tTF alone
Protocol: as §2, §1, §3

T1 sequence (P13726 33-251): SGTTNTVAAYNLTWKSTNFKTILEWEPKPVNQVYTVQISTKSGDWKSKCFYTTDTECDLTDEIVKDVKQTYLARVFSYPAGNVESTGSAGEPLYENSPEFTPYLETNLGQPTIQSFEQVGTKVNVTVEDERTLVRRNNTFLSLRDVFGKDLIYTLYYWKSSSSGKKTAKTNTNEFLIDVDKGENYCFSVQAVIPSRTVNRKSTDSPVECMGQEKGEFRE

In the case of “tTF: extracellular domain of the mature Tissue Factor protein (amino acid 1-219), recombinant; depyrogenated in Example X”, the “average tumor tissue necrosis” value (F9 sarcoma tumors) is reported as 45%, the coagulation time ([1]; 20,000 molecules of tTF per cell) is reported as 140 s and the coagulation time ([1]; 300,000 molecules of tTF per cell) is reported as 40 s. For the same substance, the “concentration at which plasma coagulated in 50 seconds” value ([1]; bound via B21-2/10H10 to A20 cells, separate studies per block) was 3 nM, the “effect on coagulation time” value ([1]; cells incubated with tTF alone (not bound)) was “no effect on coagulation time” and the “time to visible fibrin strands after addition of mouse plasma” value ([1]; tTF bound to A20 cells by B21-2/10H10, untreated cells 164 seconds) was 36 s. The “control reagents causing thrombosis” value (L540 tumor blood vessels) was “None”, the TNFα in serum (TNFα) was “could not be detected” and the “binding to immobilized tTF” value (immobilized tTF) was “did not bind to or homodimerize with immobilized tTF”. For the same substance, the “tumor growth versus antibodies or saline alone” value (C1300 Muγ tumors) was “grew significantly more slowly”, the “% tumor necrosis” value ([2]; Table 2, tTF alone, three days after i.v. treatment) was 4% and the tumor tissue necrosis ([2]; endotoxin-free tTF alone, 4 μg or 16 μg i.v., three days after treatment) was 0%. For the same substance, the anti-tumor effect ([2]; tTF alone, 4 μg to 16 μg) was “no anti-tumor effect”, the anti-tumor effect ([2]; tTF alone, 100 μg) was “anti-tumor effects begin to appear” and the TAT [3] was 25.4 ng/mL. For the same substance, the “Symptoms (clinical signs of toxicity)” value [4] was “no clinical signs of toxicity”, the “Symptoms (clinical signs of toxicity)” value ([4]; listed as TTF) was “None” and the “histology of normal organs (necrosis, thrombosis, abnormalities)” value ([4]; light microscopy, three days after treatment) was “No histological abnormalities were seen”.
